Source: patent publication US7179934B2, “Amino acids with affinity for the α2δ-protein” (Warner-Lambert Company LLC, priority 2003, dated 2007)

Tested on: α2δ-subunit derived from porcine brain tissue
Assay: radioligand binding assay using [3H]-gabapentin
Details: [3H]-gabapentin radioligand
From the text: The ability of compounds of the present invention to bind to the α2δ-subunit of a calcium channel can be determined using the following binding assay.
The radioligand binding assay using [^3H]-gabapentin and the α2δ-subunit derived from porcine brain tissue was used. See Nicolas S. Gee et al., “The novel anticonvulsant drug, gabapentin (Neurontin), binds to the α2δ subunit of a calcium channel,” J. Biol. Chem. 271 (10):5768–76 (1996). Compounds of the invention bind with nanomolar to micromolar affinity for the α2δ protein.

affinity to the α2δ protein: 75 nM
Compound: CCCCC(CC)CCC(CN)C(=O)O (stereo not shown) [2-aminomethyl-5-ethyl-nonanoic acid]
